Results taken from patent EP0934745B1, “Use of androsterone derivatives for inhibiting DNA binding of ap-1 and airway smooth muscle proliferation” (CHARLOTTE-MECKLENBURG HOSPITAL doing business as Carolinas …, priority 1998, dated 1999).

Tests used:
[1] = test system: p21^ras; test: Immunoblot of p21ras in membranes of cultured airway smooth muscle cells; format: cell-based, rat; details: 10% FBS + 10 µM, 24 hours (Figure 6B)
Description: To determine if 16α-bromoepiandrosterone reduced cellular proliferation by interfering with mevalonic acid synthesis, cells were stimulated with FBS and grown in the presence or absence of 16α-BrEA, with or without addition of 6 mM DL-mevalonic acid lactone to growth medium. After 36 hours growth was measured by MTT reduction. To evaluate whether isoprenylation and membrane localization of Ras was impaired, confluent cells on 75-cm^2 Petri dishes were growth arrested for 24 hours in 0.5% FBS and DMEM with and without 16α-BrEA or DMSO vehicle. Some dishes were then stimulated 30 minutes with 10% FBS in DMEM. Cells were lysed, membranes were isolated and immunoblotting was performed as described below to determine if treatment with DHEA and 16α-BrEA depleted p21^ras.
To determine if DHEA or its analogs induced programmed cell death, confluent cultures in 6 well plastic plates were treated with 50 or 250 µM DHEA, 10 or 50 µM 16α-BrEA, or vehicle (25 µl DMSO). After 2 hours cells were washed twice with DPBS and scraped on ice into 1.5 ml microfuge tubes and centrifuged 250 g for 5 minutes at 4°C. […] The linear increase in absorbance at 340 nm was monitored at 25°C for 300 seconds. Activity was expressed as units/mg protein, where 1.0 unit will oxidase 1.0 µmole of G6P to 6-phospho-D-gluconate per min in the presence of NADP. Protein was measured using the BCA protein assay (Rockford, IL). […]

[2] = test system: BEAS-2B cells; test: Interleukin-8 secretion by cultured human respiratory epithelium (ELISA); format: cell-based; details: 1 hr pretreatment
Description: J. Physiol. […] J. Physiol. […] Statistical Analysis. […] Significance was assumed at p < 0.05.
After 24 hours (for TNF stimulated cells) or 6 hours (for ROFA stimulated cells) media was collected and centrifuged to remove debris. […] Results are means ± standard errors of 4-6 experiments per treatment group. DMSO vehicle, as an antioxidant, reduces IL-8 secretion (a known effect) but BrEA inhibits much more profoundly.

C[C@]12CC[C@H](O)C[C@@H]1CC[C@@H]1[C@@H]2CC[C@]2(C)C(=O)[C@H](Br)C[C@@H]12 [16α-BrEA, 16α-bromoepiandrosterone]
p21^ras in membranes of cultured airway smooth muscle cells [1]: does not deplete p21^ras | IL-8 ([2]; ROFA Stimulated BEAS Cells (ROFA 50 µg/ml, 6 hr), 25 µM, ROFA + DMSO 410 ± 18): 123 ± 5 pg/mL | IL-8 ([2]; TNF Stimulated BEAS Cells (TNFα 40 ng/ml, 24 hr), 2 µM, TNF + DMSO 93 ± 14): 104 ± 31 pg/mL | IL-8 ([2]; TNF Stimulated BEAS Cells (TNFα 40 ng/ml, 24 hr), 10 µM, TNF + DMSO 93 ± 14): 52 ± 18 pg/mL | IL-8 ([2]; TNF Stimulated BEAS Cells (TNFα 40 ng/ml, 24 hr), 50 µM, TNF + DMSO 93 ± 14): 27 ± 2 pg/mL
